88 compounds from a melting point compilation (Tetko et al.; mined from patent text by program, amines drawn as free bases though some values may be those of a salt) can be followed below.

Each structure is given as a SMILES string. Bounds are passed on as bounds.

As to `CC(=O)c1cccc(NC(=S)N(C)N)c1`, the melting point fell in the range of 125 to 127 °C.
For the compound `CC(C)(C)C1C(=O)NN=C2CCCCC21` (stereo not drawn), the melting point is 161 to 164 °C.
`CCCCCCCCCCCCCCCCOCC(CO)OCOC(C)=O` (stereo not drawn) yielded a melting point of 44 °C.
`O=C(OCc1ccccc1)N1CCC(O)(C(=O)O)C1` (stereo not drawn) returned a melting point of 142 to 144 °C.
With `CCOC(=O)c1c(O)c2cc(F)ccc2c(=O)n1CC1CC1`, the melting point is 61 to 62 °C.
In the case of `CCC(CC)Nc1nnc(-c2ccccc2)c2ccccc12`, the melting point is 210 °C.
On to `CN(CCOc1ccc(Cl)c2c1CC(=O)N2)c1cccs1`, for which the melting point was in the range of 203 to 204 °C.
Then `CN(C)C1CCC(Nc2ncc3ncnc(Nc4ccc(F)c(Cl)c4)c3n2)CC1` (stereo not drawn), with 178 to 180 °C.
Then `Cc1ccc2c(c1)cc(C(=O)O)n2CC(=O)OC(C)(C)C`, with 174 to 176 °C; and `O=C1c2ccccc2C(=O)N1Oc1ccc([N+](=O)[O-])cc1C(F)(F)F`, with 190 °C.
As to `CN1C(=O)CC[C@]2(C)c3ccc(Sc4nc(-c5ccccc5)cc5ccccc45)cc3CC[C@@H]12`, the melting point was 183 to 189 °C.
Compound `O=C1Nc2cc(Cl)ccc2Oc2ccccc21` gave a melting point of 250 to 255 °C.
Consider `O=C1CC2(C(=O)N1)C(=O)N(Cc1ccc(Cl)c(Cl)c1)c1ccccc12` (stereo not drawn), for which the melting point was in the range of 205 to 207 °C.
`CCCCCCC1CCC(=O)N1c1ccc(Cl)c(NC2=NN(c3c(Cl)cc(Cl)cc3Cl)C(=O)C2)c1` (stereo not drawn) displayed a melting point of 224 to 227 °C.
Regarding `O=c1[nH]c2sc(Br)c(Br)c2[nH]c1=O`, the melting point is over 300 °C.
`C#Cc1ccc(CO[C@@H]2COc3nc([N+](=O)[O-])cn3C2)cn1` returned a melting point of 168 to 170 °C.
As for `COC1CN(C(=O)c2cnn(C)c2C(=O)Nc2ccn3nc(-c4ccccc4)nc3c2)C1`, the melting point lay in the range of 269 to 270 °C.
Regarding `NC(=O)/C=C/c1ccc(F)cc1`, the melting point was determined as 130 °C.
Regarding `CCOCc1nc2c(N)nc3cc(-c4ccc(-c5ccc6c(c5)nc(N)c5nc(COCC)n(CC(C)(C)O)c56)cc4)ccc3c2n1CC(C)(C)O`, the melting point fell in the range of 325 to 328 °C.
Turning to `C=CCOCc1nc(C(C)(C)C)nn1-c1c(Cl)cc(Cl)cc1Cl`, the melting point was in the range of 34 to 37 °C.
Then `COc1ccc(Cn2c(=O)[nH]c3ccc([N+](=O)[O-])cc3c2=O)cc1`, with 254 to 256 °C; and `O=c1ccn(CCO)c(C(O)c2ccc(Br)cc2)c1O` (stereo not drawn), with 189 to 193 °C; and `CC(=O)c1ccc(C#CCOC2CCC3C4CCC5CC(C)(O)CCC5(C)C4CCC23C)cc1` (stereo not drawn), with 52 to 55 °C.
`COc1nc(NCn2nnc3ccccc32)nc(N(C)C)n1`: the melting point fell in the range of 222 to 224 °C.
Regarding `COc1cc2c(cc1Br)CC(C)N(C(=O)C1CC1)N=C2c1ccc([N+](=O)[O-])cc1` (stereo not drawn), the melting point lay in the range of 194 to 196 °C.
Consider `CC(=O)c1ccc(OCc2ccccc2)cc1O`, for which the melting point was in the range of 107 to 108 °C.
`N#Cc1cc(/C=C/C(c2cc(Cl)c(Cl)c(Cl)c2)C(F)(F)F)ccc1-n1cnc(N)n1` (stereo not drawn) showed a melting point of 72 to 75 °C.
For `Cn1cc(C(=O)C(=O)Cl)c2ccccc21`, the melting point was in the range of 122 to 133 °C.
`COc1ccc(OC)c(-c2cc(OC)cc3c2OC(CN)C3)c1` (stereo not drawn) yielded a melting point of 128 to 130 °C.
`COc1ccc2c(-c3ccccc3F)noc2c1C` gave a melting point of 105 to 108 °C.
Compound `COC(=O)c1ccc2c3cccc4cccc(c5ccc(C(=O)OC)c1c25)c43` yielded a melting point of 256 to 257 °C.
`O=[N+]([O-])c1ccc2c(ccn2-c2cccnc2)c1`: the melting point lay within 164 to 165 °C.
Compound `CCOC(=O)C(=O)c1cn(CCCNC(=O)OC(C)(C)C)c2ccccc12` had a melting point of 89 to 90 °C.
As to `CCc1cn(C2CC(O)C(CCC(O)C(C)Oc3ccc(Cl)cc3Cl)O2)c(=O)[nH]c1=O` (mixture of isomers), the melting point lay within 108 to 111 °C.
In the case of `Oc1ccc2nc(-c3ccc(O)c(F)c3)cc(-c3ccc(F)cc3)c2c1`, the melting point lay within 240 to 243 °C.
For `CCOC(=O)c1c2c3c(cccc3n1C)CCC2`, the melting point was in the range of 80 to 81 °C.
On to `C=CCN1CCNC(=O)c2cccc([N+](=O)[O-])c21`, for which the melting point fell in the range of 80 to 82 °C.
In turn, `COc1ccc(CN(CCN(C)CCCCCCNC(=S)NCCSCc2csc(NC(=N)N)n2)c2ccccn2)cc1` had a melting point of 78 °C.
In the case of `Cc1ccc(Br)cc1NC(=O)NCCCNCCCCl`, the melting point is 145 to 148 °C.
Then `CCC(=O)Nc1cccc(-c2c(C)c(NC(=O)CC(C)(C)C)c(C)c3c2OCC3c2ccc(C(C)C)cc2)c1` (stereo not drawn), with 237 to 239 °C.
Then `O=c1cc(N2CCOc3ccccc32)oc2c1ccc1ccccc12`, with 78 to 79 °C.
As for `O=C1c2ccccc2C(=O)N1C[C@@H]1CCC=CO1`, the melting point is 87 to 88 °C.
For the compound `CCOC(=O)c1ccc2cc(OC(=S)N(C)C)ccc2c1`, the melting point lay in the range of 128 to 130 °C.
Turning to `CN1CCC(c2c(O)cc(O)c3c(=O)cc(-c4ccccc4Cl)oc23)C1CN` (stereo not drawn), the melting point is 218 to 219 °C.
`Cc1ncc(CSC(=O)c2ccccc2)c(C=O)c1O`: the melting point is 127 to 130 °C.
As for `C[C@]12CCC(=O)N[C@@H]1CCc1cc(C=O)ccc12`, the melting point fell in the range of 185 to 189 °C.
`O=C(CCC(=O)N1CCN(c2ccc(N3C[C@H](CNC(=S)C4CC4)OC3=O)cc2F)CC1)c1ccc(CN2CCOCC2)cc1` yielded a melting point of 173 to 174 °C.
`Cc1cc(Cc2ccsc2)c(NC(=O)OCc2ccccc2)c(=O)n1CC(=O)O`: the melting point lay in the range of 153 to 155 °C.
`COc1c(C)cnc(CSc2nc3ncccc3[nH]2)c1C` displayed a melting point of 186 to 188 °C.
As for `O=C(O)CCc1conc1-c1ccc(C(F)(F)F)cc1`, the melting point is 173 to 174 °C.
The compound `CNC(=O)C(=O)CCCCCCSc1ccc2ccccc2c1` showed a melting point of 94 to 95 °C.
For the compound `CC(=NOCCOc1ccc(CC2SC(=O)NC2=O)cc1)c1ccc2ccccc2c1` (stereo not drawn), the melting point lay in the range of 138 to 139 °C.
`COc1ccc2cnc(Nc3ccc(N4CCNCC4)c(F)c3)nc2c1C1CCCC1` returned a melting point of 228 to 229 °C.
`Cc1cc(C=O)c(OCCCCCCc2ccccc2)c(C=O)c1` yielded a melting point of 64 °C.
To `N#Cc1ccc(-c2nc(-c3ccc(F)cc3)c(-c3ccncc3)[nH]2)cc1` belongs 268 to 269 °C; to `O=C(O)CCc1cn(Cc2ccc(OCc3csc(-c4ccncc4)n3)cc2)cc1-c1ccccc1`, 149 to 150 °C.
Compound `COC(=O)COc1cc2cccnc2c(-c2cccc([N+](=O)[O-])c2)n1` displayed a melting point of 160 to 162 °C.
To `O=C1CCC(N2Cc3c(OCc4ccc(CN5CCN(C(=O)C(F)(F)F)CC5)cc4)cccc3C2=O)C(=O)N1` (stereo not drawn) belongs 125 to 127 °C.
Then `C1=c2ccn3c2=C(CC1)c1nncn1-c1ccccc1-3`, with 177 to 178 °C; and `Cc1ccc(-c2nsc3ccccc23)cc1`, with 56 °C.
The compound `O=C(c1ccc(C2CCCCC2)cc1)c1ccccn1` yielded a melting point of 44 to 45 °C.
`CCC(C(=O)N(C)C)n1cc(C)c(-c2ccccc2OC)n1` (stereo not drawn) registered a melting point of 79 to 81 °C.
Regarding `COc1ccc(C2=Cc3ccc(OCc4ccccc4)cc3OC2)cc1`, the melting point was 152 to 154 °C.
`Nc1nn(Cc2ccccc2)c2nc3n(c(=O)c12)CCS3` gave a melting point of 233 to 236 °C.
On to `CC(C)=NNc1ccc(OCC(C)(C)NCC(O)COc2ccccc2C#N)nn1` (stereo not drawn), for which the melting point fell in the range of 126 to 128 °C.
Compound `O=C(CBr)Nc1cccc(OC(=O)CBr)c1` had a melting point of 96 to 98 °C.
Regarding `CC1CN(c2ccc(C(N)=O)cc2)CCN1Cc1cn2cc(Cl)ccc2n1` (racemic), the melting point was in the range of 202 to 204 °C.
To `O=[N+]([O-])c1ccc(C=NCCc2cccs2)cc1` belongs 83.9 to 84.4 °C.
The compound `OCc1ccc(OCCF)cc1` returned a melting point of 37.3 to 38 °C.
As for `CCC(=O)OCc1ccc2oc(=O)c(C(=O)Oc3cncc(Cl)c3)cc2c1`, the melting point lay in the range of 156 to 158 °C.
To `CCOC(=O)C1(n2cc(Br)cc2C(=O)C(Cl)(Cl)Cl)CC(=O)NC1=O` (stereo not drawn) belongs 196 to 198 °C; to `COC(=O)c1ccc(OC2CCOC2=O)c([N+](=O)[O-])c1` (stereo not drawn), 99 to 101 °C; to `CCCCn1cc(C(=O)C(=O)O)c2cc(-c3ccc(C(F)(F)F)cc3)ccc21`, 149 °C.
The compound `CC(=O)O[C@H]1C=C(Br)C(=O)[C@@H]2O[C@H]12` yielded a melting point of 93 to 94 °C.
`O=C(C=Cc1ccc2c(c1)OCO2)N1CCc2c([nH]c3ccccc23)C1c1ccc2c(c1)OCO2` (stereo not drawn) yielded a melting point of 233 °C.
In turn, `O=CN(O)C(CCO)CS(=O)(=O)c1ccc(-c2ccc(F)cc2)cc1` (stereo not drawn) came in with a melting point of 160 to 162 °C.
`O=S(=O)(NC1CCN(C2CCCCC2)CC1)c1ccc(Nc2ccnc3cc(Cl)ccc23)cc1`: the melting point fell in the range of 192 to 193 °C.
For `CCCCc1nn(-c2cc(NC(=O)CC)ccc2C(F)(F)F)c(=O)n1Cc1ccc(-c2ccccc2S(=O)(=O)NC(=O)c2ccccc2Cl)cc1F`, the melting point was in the range of 181 to 183 °C.
To `CCOC(=O)N(CC)c1cccc(-c2ccnc3ccnn23)c1` belongs 79 to 81 °C; to `C#CCOc1nc(-c2ccc(OC)cc2)n(-c2ccc(OC)cc2)n1`, 81 to 82 °C.
To `CCN1CC(=O)N(c2cc(Cl)ccc2OC)C1=S` belongs 171 to 174 °C; to `CC1(C)O[C@H]2CC(O)=C(O)C(=O)[C@H]2O1`, 153 to 154 °C.
Regarding `N=C(Nc1cccc2ccccc12)Nc1cccc2ccccc12`, the melting point lay within 210 to 211 °C.
`Cc1ccc([N+](=O)[O-])cc1S(=O)(=O)N(C)C` came in with a melting point of 72 to 74 °C.
In turn, `COc1cc(C(=O)O)ccc1Cn1nc(O)c2ccc(NC(=O)CC3CCCC3)cc21` had a melting point of 269 to 272 °C.
To `CN(Cc1ccc(-c2ccc(O)c(Br)c2)cc1)C(=O)c1cn(C)c2ccccc12` belongs 237 to 239 °C; to `COC1(C(=O)Cc2ccc(-c3ccc(O)cc3)cc2)C=CC(Cl)=CC1N` (stereo not drawn), 165 to 168 °C; to `CCOC(=O)Nc1csc2cc(OCc3ccccc3)ccc12`, 129 to 130 °C.

One may read the melting point as the temperature, or range, at which the solid turns liquid.
